T/C data for 28 molecules are collected here from PubChem BioAssay AID330 (DTP/NCI, 2004).

This experiment deals with P388 leukemia ip, CD2F1 mice, survival T/C. The experiment can be described thus: NCI In Vivo Anticancer Drug Screen. Data for tumor model P388 Leukemia (intraperitoneal) in CD2F1 (CDF1) mice. Conditions: endpoint: median survival time, higher = longer survival. Summed up:
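Mice carrying the transplanted tumor received test compound or vehicle. Survival was recorded in each group, and the value is the treated-group measurement divided by that of the vehicle-treated control group.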

Setting [1] is: dose: 60.0 mg/kg/injection, schedule: Q01DX005 (ip), vehicle: saline with Tween-80.
Setting [2] is: dose: 120.0 mg/kg/injection, schedule: Q01DX005 (ip), vehicle: saline with Tween-80.
Setting [3] is: dose: 240.0 mg/kg/injection, schedule: Q01DX005 (ip), vehicle: saline with Tween-80.
Setting [4] is: dose: 50.0 mg/kg/injection, schedule: Q01DX005 (ip), vehicle: saline with Tween-80.
The mark [5] stands for this setting: dose: 100.0 mg/kg/injection, schedule: Q01DX005 (ip), vehicle: saline with Tween-80.
Where [6] appears, read: dose: 100.0 mg/kg/injection, schedule: Q01DX009 (ip), vehicle: saline with Tween-80.
Where [7] appears, read: dose: 200.0 mg/kg/injection, schedule: Q01DX009 (ip), vehicle: saline with Tween-80.
Where [8] appears, read: dose: 60.0 mg/kg/injection, schedule: Q01DX005 (ip), vehicle: Klucel (hydroxypropylcellulose) (HPC).
[9] abbreviates: dose: 120.0 mg/kg/injection, schedule: Q01DX005 (ip), vehicle: Klucel (hydroxypropylcellulose) (HPC).
[10] abbreviates: dose: 50.0 mg/kg/injection, schedule: Q01DX009 (ip), vehicle: saline with Tween-80.

“And” between values parts separate entries of the source, which are not always exact repeats. Equal values may be shown once. Inconclusive results and toxic doses are left out.

Consider `CC1=CC2OC3CC4OC(=O)/C=C/C=C/C(C(C)O)OCC(O)/C(C)=C/C(=O)OCC2(CC1O)C4(C)C31CO1` (stereo not given), for which the T/C was 163 % of control (dose: 1.25 mg/kg/injection, schedule: Q01DX005 (ip), vehicle: saline + alcohol); 156 % of control and 224 % of control (dose: 2.5 mg/kg/injection, schedule: Q01DX005 (ip), vehicle: saline + alcohol); 198 % of control and 243 % of control (dose: 5.0 mg/kg/injection, schedule: Q01DX005 (ip), vehicle: saline + alcohol).
With `Cc1cc(C)nc(CC(O)c2ccc(C=O)cc2)c1` (stereo not given), the T/C reads like this: under setting [1], 100 % of control; under setting [2], 94 % of control; under setting [3], 94 % of control.
As for `OCC1OC(O)C(N=C/C=C/c2ccccc2)C(O)C1O` (stereo not given), the T/C runs as follows: under setting [4], 104 % of control; under setting [5], 117 % of control; (dose: 200.0 mg/kg/injection, schedule: Q01DX005 (ip), vehicle: saline with Tween-80) 115 % of control.
`CN1C2CCC1c1c([nH]c3ccccc13)C2` (stereo not given): the T/C runs as follows: under setting [1], 94 % of control; under setting [2], 94 % of control.
For `Nc1nc(SCc2ccccn2)c2[nH]cnc2n1`, for the setting “dose: 66.0 mg/kg/injection, schedule: Q04DX003 (ip), vehicle: Klucel (hydroxypropylcellulose) (HPC)”, the T/C is 122 % of control.
Take `FC(F)(F)C1(C(F)(F)F)SC(C(F)(F)F)(C(F)(F)F)S1`: the T/C (dose: 50.0 mg/kg/injection, schedule: Q01DX005 (ip), vehicle: saline) is 104 % of control; the T/C (dose: 100.0 mg/kg/injection, schedule: Q01DX005 (ip), vehicle: saline) was 107 % of control; the T/C (dose: 200.0 mg/kg/injection, schedule: Q01DX005 (ip), vehicle: saline) is 104 % of control.
As for `CC(C)C1=CC2=C(CC1)C1(C)CCCC(C)(C(=O)O)C1CC2` (stereo not given), the T/C runs as follows: under setting [6], 100 % of control; under setting [7], 100 % of control; (dose: 400.0 mg/kg/injection, schedule: Q01DX009 (ip), vehicle: saline with Tween-80) 100 % of control.
In the case of `COc1ccc(C2OC3=Nc4cc(C)c(C)cc4NC3C2=O)cc1OC` (stereo not given), the T/C under setting [1] is 101 % of control, the T/C under setting [2] was 101 % of control and the T/C under setting [3] was 99 % of control.
As for `CCOc1nc(=O)[nH]c2c1CCCC2`, the T/C by setting is: under setting [8], 98 % of control; under setting [9], 98 % of control.
For the molecule `O=c1oc(-c2ccccc2)cc(N(c2ccccc2)c2ccccc2)c1Cl`, the T/C runs as follows: under setting [10], 93 % of control; under setting [6], 93 % of control; under setting [7], 95 % of control.
`OCCNC(=S)Nc1ccccc1`: the T/C runs as follows: (dose: 7.5 mg/kg/injection, schedule: Q01DX009 (ip), vehicle: saline with Tween-80) 104 % of control; (dose: 15.0 mg/kg/injection, schedule: Q01DX009 (ip), vehicle: saline with Tween-80) 100 % of control.
Consider `NC(=S)n1nc(-c2ccccc2)c(N=Nc2ccccc2[N+](=O)[O-])c1-c1ccccc1`, for which the T/C was 99 % of control (dose: 100.0 mg/kg/injection, schedule: Q04DX002 (ip), vehicle: Klucel (hydroxypropylcellulose) (HPC)); 110 % of control (dose: 200.0 mg/kg/injection, schedule: Q04DX002 (ip), vehicle: Klucel (hydroxypropylcellulose) (HPC)); 105 % of control (dose: 400.0 mg/kg/injection, schedule: Q04DX002 (ip), vehicle: Klucel (hydroxypropylcellulose) (HPC)).
In the case of `N#CC(C#N)(c1ccccc1)N1CCOCC1`, the T/C was 109 % of control (dose: 25.0 mg/kg/injection, schedule: Q04DX003 (ip), vehicle: saline); 100 % of control (dose: 50.0 mg/kg/injection, schedule: Q04DX003 (ip), vehicle: saline); 100 % of control (dose: 100.0 mg/kg/injection, schedule: Q04DX003 (ip), vehicle: saline with Tween-80); 104 % of control (dose: 100.0 mg/kg/injection, schedule: Q04DX003 (ip), vehicle: saline); 96 % of control (dose: 200.0 mg/kg/injection, schedule: Q04DX003 (ip), vehicle: saline with Tween-80).
For `CSc1nc(NC2OCC(OC(C)=O)C(OC(C)=O)C2OC(C)=O)c(N=C(C)C(C)=O)c(=O)n1C` (stereo not given), the T/C runs as follows: under setting [1], 100 % of control; under setting [2], 87 % of control.
For the molecule `Fc1ccnc(F)n1`, the T/C is, setting by setting: (dose: 25.0 mg/kg/injection, schedule: Q04DX003 (ip), vehicle: water) 100 % of control; (dose: 50.0 mg/kg/injection, schedule: Q04DX003 (ip), vehicle: water) 104 % of control.
In the case of `O=[N+]([O-])c1ccc(N/N=C\c2c(Cl)[nH]c3ccccc23)cc1`, the T/C was 86 % of control (dose: 100.0 mg/kg/injection, schedule: Q04DX002 (ip), vehicle: saline + alcohol); 98 % of control (dose: 200.0 mg/kg/injection, schedule: Q04DX002 (ip), vehicle: saline + alcohol); 104 % of control (dose: 400.0 mg/kg/injection, schedule: Q04DX002 (ip), vehicle: saline + alcohol).
As for `NC(=S)Nc1cccc(C(F)(F)F)c1`, the T/C is 104 % of control (dose: 100.0 mg/kg/injection, schedule: Q01DX009 (ip), vehicle: other) and 115 % of control (dose: 200.0 mg/kg/injection, schedule: Q01DX009 (ip), vehicle: other).
Regarding `COc1ccc(/C=C/c2nc(Nc3ccc(S(N)(=O)=O)cc3)c3ccccc3n2)cc1`, the T/C by setting is: (dose: 50.0 mg/kg/injection, schedule: Q01DX009 (ip), vehicle: acetone) 102 % of control; (dose: 100.0 mg/kg/injection, schedule: Q01DX009 (ip), vehicle: acetone) 99 % of control; (dose: 200.0 mg/kg/injection, schedule: Q01DX009 (ip), vehicle: acetone) 96 % of control.
With `Cc1nn(-c2ccccc2)c2c1C(c1ccc([N+](=O)[O-])cc1)C(C#N)=C(N)O2` (stereo not given), the T/C is, setting by setting: (dose: 50.0 mg/kg/injection, schedule: Q01DX009 (ip), vehicle: Klucel (hydroxypropylcellulose) (HPC)) 102 % of control; (dose: 100.0 mg/kg/injection, schedule: Q01DX009 (ip), vehicle: Klucel (hydroxypropylcellulose) (HPC)) 90 % of control; (dose: 200.0 mg/kg/injection, schedule: Q01DX009 (ip), vehicle: Klucel (hydroxypropylcellulose) (HPC)) 107 % of control.
Regarding `CSC(=S)N/N=C(\c1ccccc1)c1ccccn1`, the T/C was 96 % of control (dose: 6.25 mg/kg/injection, schedule: Q01DX009 (ip), vehicle: saline with Tween-80); 89 % of control and 97 % of control (dose: 12.5 mg/kg/injection, schedule: Q01DX009 (ip), vehicle: saline with Tween-80); 92 % of control under setting [10].
For the molecule `N#CCNC=O`, the T/C (dose: 60.0 mg/kg/injection, schedule: Q01DX005 (ip), vehicle: saline) was 98 % of control; the T/C (dose: 120.0 mg/kg/injection, schedule: Q01DX005 (ip), vehicle: saline) was 103 % of control; the T/C (dose: 240.0 mg/kg/injection, schedule: Q01DX005 (ip), vehicle: saline) is 100 % of control.
On to `CC(=O)Nc1ccc(N=NN(C)Cc2ccccc2)cc1`, for which the T/C (dose: 25.0 mg/kg/injection, schedule: Q01DX001 (ip), vehicle: Klucel (hydroxypropylcellulose) (HPC)) was 102 % of control and the T/C (dose: 50.0 mg/kg/injection, schedule: Q01DX001 (ip), vehicle: Klucel (hydroxypropylcellulose) (HPC)) was 92 % of control.
In the case of `CC1=C(O)c2cc3c(cc2C(=O)C1=O)OCO3`, the T/C under setting [8] is 98 % of control; the T/C under setting [9] is 88 % of control; the T/C (dose: 240.0 mg/kg/injection, schedule: Q01DX005 (ip), vehicle: Klucel (hydroxypropylcellulose) (HPC)) was 92 % of control.
As for `OCC1OC(n2cnc3c(NCc4ccco4)ncnc32)C(O)C1O` (stereo not given), the T/C was 111 % of control under setting [10], 93 % of control under setting [6] and 118 % of control under setting [7].
As to `CC(C)CN(CC(C)C)CN(CC(C)C)CC(C)C`, the T/C is 100 % of control under setting [4] and 119 % of control under setting [5].
Consider `c1cnc2c(c1)C1OC(S2)c2cccnc2S1`, for which the T/C is 102 % of control under setting [10] and 97 % of control under setting [6].
Regarding `c1cc2n3c1CCc1ccc(n1CC3)CC2`, the T/C is, setting by setting: (dose: 8.0 mg/kg/injection, schedule: Q01DX009 (ip), vehicle: saline with Tween-80) 100 % of control; (dose: 16.0 mg/kg/injection, schedule: Q01DX009 (ip), vehicle: saline with Tween-80) 100 % of control; (dose: 32.0 mg/kg/injection, schedule: Q01DX009 (ip), vehicle: saline with Tween-80) 100 % of control.
For `O=C(c1ccccc1)N1OCCCc2ccccc21`, the T/C is, setting by setting: under setting [1], 104 % of control; under setting [2], 96 % of control; under setting [3], 91 % of control.
